For 26 molecules, EC50 results are on record in US10723699B2 (Hyundai Pharm Co., Ltd., priority 2015, dated 2020).

This assay concerns the target T1, G protein-coupled receptor 119 (GPR-119) (Mesocricetus auratus, UniProt A0A1U8CD06).
T1 construct: hamster-derived β-cells containing G protein-coupled receptor 119 (GPR-119), HIT-T15 cells; host or cells: HIT-T15 (hamster pancreatic β-cells)
T1 sequence (A0A1U8CD06 1-334): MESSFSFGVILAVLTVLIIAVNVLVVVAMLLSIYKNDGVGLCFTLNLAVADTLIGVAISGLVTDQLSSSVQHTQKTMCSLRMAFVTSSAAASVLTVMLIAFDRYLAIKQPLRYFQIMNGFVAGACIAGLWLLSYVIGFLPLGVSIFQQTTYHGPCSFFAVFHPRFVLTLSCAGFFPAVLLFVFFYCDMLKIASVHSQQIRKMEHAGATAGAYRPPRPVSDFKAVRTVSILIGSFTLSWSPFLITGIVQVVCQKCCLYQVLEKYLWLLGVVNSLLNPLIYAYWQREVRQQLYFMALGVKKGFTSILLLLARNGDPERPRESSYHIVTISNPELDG
The assay is described as follows: cAMP activity in HIT-T15 cells (cAMP dynamic kit, FRET). The class given is cell-based, hamster. A digest of the protocol: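 Hamster HIT-T15 cells (60,000/well) were treated next day with compound at six concentrations, 0.0032–10 μM, for 1 h at 37° C. Cells were then lysed and cAMP measured by competitive HTRF immunoassay (D2-cAMP, cryptate anti-cAMP). Activity was derived as the change in FRET signal relative to DMSO.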

Setting [1] is: 1 hour at 37° C., six concentrations 0.0032 to 10 μM, read-out: EC50.

Where two headings read alike, the source gives them in different places.

As for `CC(C)c1noc(N2CCC(COc3ccc(C4=CCC(C(=O)N5CCSCC5)CC4)c(F)c3)CC2)n1` (centres unmarked) [Example 449, (4-(2-fluoro-4-((1-(3-isopropyl-1,2,4-oxadiazol-5-yl)piperidin-4-yl)methoxy)phenyl)cyclohex-3-enyl)(thiomorpholino)methanone], the concentration for a half-maximal effect (EC50) (usually the concentration at which the effect is half-maximal) was 33 nM under setting [1] and at most 50 nM (Table 2, read-out: EC50 value).

Take `CCc1cnc(N2CCC(COc3ccc(C4=CCC(C(=O)N5CCC(CO)CC5)CC4)cn3)CC2)nc1` (centres unmarked) [Example 354, (4-(6-((1-(5-ethylpyrimidin-2-yl)piperidin-4-yl)methoxy)pyridin-3-yl)cyclohex-3-enyl)(4-(hydroxymethyl)piperidin-1-yl)methanone]: the concentration for a half-maximal effect (EC50) was 22 nM under setting [1] and at most 50 nM (Table 2, read-out: EC50 value).

As for `CC(C)(C)OC(=O)N1CCC(COc2ccc(C3=CCC(C(=O)N4CCC(CO)CC4)CC3)nc2)CC1` (centres unmarked) [Example 325, tert-butyl 4-((6-(4-(4-(hydroxymethyl)piperidine-1-carbonyl)cyclohex-1-enyl)pyridin-3-yloxy)methyl)piperidine-1-carboxylate], the 50% effective concentration (EC50) under setting [1] came to 53 nM.

For the molecule `CCc1cnc(N2CCC(COc3ccc(C4=CCC(C(=O)N5CCC[C@H]5CO)CC4)cc3)CC2)nc1` (single isomer, unassigned; (+)) [Example 466], the 50% effective concentration (EC50) under setting [1] amounted to 12 nM and the EC50 (Table 2, read-out: EC50 value) is at most 50 nM.

As for `CCc1cnc(N2CCC(COc3ccc(C4=CCC(C(=O)N5CCN(CCCO)CC5)CC4)cc3)CC2)nc1` (centres unmarked) [Example 380, (4-(4-((1-(5-ethylpyrimidin-2-yl)piperidin-4-yl)methoxy)phenyl)cyclohex-3-enyl)(4-(3-hydroxypropyl)piperazin-1-yl)methanone], the EC50 under setting [1] stood at 79 nM.

Regarding `CCc1cnc(N2CCC(COc3ccc(C4=CCC(C(=O)N5CCC(F)(F)C5)CC4)cc3F)CC2)nc1` (centres unmarked) [Example 459, (3,3-difluoropyrrolidin-1-yl)(4-(4-((1-(5-ethylpyrimidin-2-yl)piperidin-4-yl)methoxy)-3-fluorophenyl)cyclohex-3-enyl)methanone], the EC50 reads like this: under setting [1], 36 nM; (Table 2, read-out: EC50 value) at most 50 nM.

Regarding `CC1(OC(=O)N2CCC(COc3ccc(C4=CCC(C(=O)N5CCCC5)CC4)cc3F)CC2)CC1` (centres unmarked) [Example 408, 1-methylcyclopropyl 4-((2-fluoro-4-(4-(pyrrolidine-1-carbonyl)cyclohex-1-enyl)phenoxy)methyl)piperidine-1-carboxylate], the EC50 runs as follows: under setting [1], 25 nM; (Table 2, read-out: EC50 value) at most 50 nM.

As for `CCc1cnc(N2CCC(COc3ccc(C4=CCC(C(=O)N5CCCC5)CC4)cc3C#N)CC2)nc1` (centres unmarked) [Example 386, 2-((1-(5-ethylpyrimidin-2-yl)piperidin-4-yl)methoxy)-5-(4-(pyrrolidine-1-carbonyl)cyclohex-1-enyl)benzonitrile], the half-maximal effective concentration (EC50) under setting [1] stood at 64 nM.

Turning to `CCc1cnc(N2CCC(COc3ccc(C4=CCC(C(=O)N5CCSCC5)CC4)cc3C#N)CC2)nc1` (centres unmarked) [Example 389, 2-((1-(5-ethylpyrimidin-2-yl)piperidin-4-yl)methoxy)-5-(4-(thiomorpholine-4-carbonyl)cyclohex-1-enyl)benzonitrile], the EC50 under setting [1] worked out at 68 nM.

As to `CCc1cnc(N2CCC(COc3ccc(C4=CCC(C(=O)N5CCCCC5)CC4)cn3)CC2)nc1` (centres unmarked) [Example 350, (4-(6-((1-(5-ethylpyrimidin-2-yl)piperidin-4-yl)methoxy)pyridin-3-yl)cyclohex-3-enyl)(piperidin-1-yl)methanone], the EC50 under setting [1] was 52 nM.

Take `CC(C)c1noc(N2CCC(COc3ccc(C4=CCC(C(=O)N5CCC(C#N)CC5)CC4)cn3)CC2)n1` (centres unmarked) [Example 338, 1-(4-(6-((1-(3-isopropyl-1,2,4-oxadiazol-5-yl)piperidin-4-yl)methoxy)pyridin-3-yl)cyclohex-3-enecarbonyl)piperidine-4-carbonitrile]: the EC50 reads like this: under setting [1], 40 nM; (Table 2, read-out: EC50 value) at most 50 nM.

For the molecule `CC(C)c1noc(N2CCC(COc3ccc(C4=CCC(C(=O)N5CCC(CCO)CC5)CC4)cc3F)CC2)n1` (centres unmarked) [Example 335, (4-(3-fluoro-4-((1-(3-isopropyl-1,2,4-oxadiazol-5-yl)piperidin-4-yl)methoxy)phenyl)cyclohex-3-enyl)(4-(2-hydroxyethyl)piperidin-1-yl)methanone], the EC50 was 18 nM under setting [1] and at most 50 nM (Table 2, read-out: EC50 value).

Take `CCc1cnc(N2CCC(COc3ccc(C4=CCC(C(=O)N5CCSCC5)CC4)cc3C)CC2)nc1` (centres unmarked) [Example 418, (4-(4-((1-(5-ethylpyrimidin-2-yl)piperidin-4-yl)methoxy)-3-methylphenyl)cyclohex-3-enyl)(thiomorpholino)methanone]: the EC50 under setting [1] was 35 nM and the 50% effective concentration (EC50) (Table 2, read-out: EC50 value) was at most 50 nM.

On to `CCc1cnc(N2CCC(COc3ccc(C4=CCC(C(=O)NCC(F)F)CC4)cc3F)CC2)nc1` (centres unmarked) [Example 314, N-(2,2-difluoroethyl)-4-(4-((1-(5-ethylpyrimidin-2-yl)piperidin-4-yl)methoxy)-3-fluorophenyl)cyclohex-3-enecarboxamide], for which, under setting [1], the concentration giving a half-maximal response (EC50) was 61 nM.

With `CCc1cnc(N2CCC(COc3ccc(C4=CCC(C(=O)N5CCSCC5)CC4)cc3F)CC2)nc1` (centres unmarked) [Example 300, (4-(4-((1-(5-ethylpyrimidin-2-yl)piperidin-4-yl)methoxy)-3-fluorophenyl)cyclohex-3-enyl)(thiomorpholino)methanone], the EC50 by setting is: under setting [1], 8.5 nM; (Table 2, read-out: EC50 value) at most 50 nM.

Consider `CCc1cnc(N2CCC(COc3ccc(C4=CCC(C(=O)N5CCC(C(N)=O)CC5)CC4)cc3F)CC2)nc1` (centres unmarked) [Example 324, 1-(4-(4-((1-(5-ethylpyrimidin-2-yl)piperidin-4-yl)methoxy)-3-fluorophenyl)cyclohex-3-enecarbonyl)piperidine-4-carboxamide], for which the EC50 by setting is: under setting [1], 27 nM; (Table 2, read-out: EC50 value) at most 50 nM.

As for `CCc1cnc(N2CCC(COc3ccc(C4=CCC(C(=O)NCC(F)(F)F)CC4)cc3F)CC2)nc1` (centres unmarked) [Example 307, 4-(4-((1-(5-ethylpyrimidin-2-yl)piperidin-4-yl)methoxy)-3-fluorophenyl)-N-(2,2,2-trifluoroethyl)cyclohex-3-enecarboxamide], under setting [1], the half-maximal effective concentration (EC50) worked out at 88 nM.

Regarding `CCc1cnc(N2CCC(COc3ccc(C4=CCC(C(=O)NCCF)CC4)cc3F)CC2)nc1` (centres unmarked) [Example 322, 4-(4-((1-(5-ethylpyrimidin-2-yl)piperidin-4-yl)methoxy)-3-fluorophenyl)-N-(2-fluoroethyl)cyclohex-3-enecarboxamide], under setting [1], the EC50 stood at 62 nM.

Consider `CC(C)c1noc(N2CCC(COc3ccc(C4=CCC(C(=O)N5CCCC5)CC4)cn3)CC2)n1` (centres unmarked) [Example 315, (4-(6-((1-(3-isopropyl-1,2,4-oxadiazol-5-yl)piperidin-4-yl)methoxy)pyridin-3-yl)cyclohex-3-enyl)(pyrrolidin-1-yl)methanone], for which, under setting [1], the EC50 was found to be 68 nM.

For `CC(C)c1noc(N2CCC(COc3ccc(C4=CCC(C(=O)N(CCO)CCO)CC4)cc3F)CC2)n1` (centres unmarked) [Example 372, 4-(3-fluoro-4-((1-(3-isopropyl-1,2,4-oxadiazol-5-yl)piperidin-4-yl)methoxy)phenyl)-N,N-bis(2-hydroxyethyl)cyclohex-3-enecarboxamide], the EC50 runs as follows: under setting [1], 46 nM; (Table 2, read-out: EC50 value) at most 50 nM.

Turning to `CC(C)c1noc(N2CCC(COc3ccc(C4=CCC(C(=O)N5CCOCC5)CC4)cn3)CC2)n1` (centres unmarked) [Example 317, (4-(6-((1-(3-isopropyl-1,2,4-oxadiazol-5-yl)piperidin-4-yl)methoxy)pyridin-3-yl)cyclohex-3-enyl)(morpholino)methanone], the 50% effective concentration (EC50) under setting [1] came to 50 nM and the concentration giving a half-maximal response (EC50) (Table 2, read-out: EC50 value) was at most 50 nM.

`CCc1cnc(N2CCC(COc3ccc(C4=CCC(C(=O)N(CC)CCO)CC4)cc3F)CC2)nc1` (centres unmarked) [Example 360, N-ethyl-4-(4-((1-(5-ethylpyrimidin-2-yl)piperidin-4-yl)methoxy)-3-fluorophenyl)-N-(2-hydroxyethyl)cyclohex-3-enecarboxamide]: the concentration for a half-maximal effect (EC50) reads like this: under setting [1], 8.8 nM; (Table 2, read-out: EC50 value) at most 50 nM.

As to `CC(C)c1noc(N2CCC(COc3ccc(C4=CCC(C(=O)N5CCCC5)CC4)cc3F)CC2)n1` (centres unmarked) [Example 331, (4-(3-fluoro-4-((1-(3-isopropyl-1,2,4-oxadiazol-5-yl)piperidin-4-yl)methoxy)phenyl)cyclohex-3-enyl)(pyrrolidin-1-yl)methanone], the EC50 under setting [1] is 11 nM and the EC50 (Table 2, read-out: EC50 value) is at most 50 nM.

On to `CCc1cnc(N2CCC(COc3ccc(C4=CCC(C(=O)N5CCSCC5)CC4)cn3)CC2)nc1` (centres unmarked) [Example 352, (4-(6-((1-(5-ethylpyrimidin-2-yl)piperidin-4-yl)methoxy)pyridin-3-yl)cyclohex-3-enyl)(thiomorpholino)methanone], for which the 50% effective concentration (EC50) under setting [1] amounted to 63 nM.

As for `CC(C)c1noc(N2CCC(COc3ccc(C4=CCC(C(=O)N5CCC(CO)CC5)CC4)cc3F)CC2)n1` (centres unmarked) [Example 333, (4-(3-fluoro-4-((1-(3-isopropyl-1,2,4-oxadiazol-5-yl)piperidin-4-yl)methoxy)phenyl)cyclohex-3-enyl)(4-(hydroxymethyl)piperidin-1-yl)methanone], the concentration giving a half-maximal response (EC50) under setting [1] worked out at 30 nM and the EC50 (Table 2, read-out: EC50 value) is at most 50 nM.

Consider `CCc1cnc(N2CCC(COc3ccc(C4=CCC(C(=O)N5CCC(CCO)CC5)CC4)cc3)CC2)nc1` (centres unmarked) [Example 173, (4-(4-((1-(5-ethylpyrimidin-2-yl)piperidin-4-yl)methoxy)phenyl)cyclohex-3-enyl)(4-(2-hydroxyethyl)piperidin-1-yl)methanone], for which the EC50 (Table 2, read-out: EC50 value) is at most 50 nM.
